# Legend:
# [1] = test system: CD1b-restricted T cell line LDN5; assay: CD1b restricted T cell response to mycobacterial lipid antigens with or without apoE; assay type: cell-based; details: versus without apoE
# Text: D) Enhancement of a CD1b dependent T cell response against foreign antigens.
# αGC reactive T cells = assay: ApoE enhancement of GGC reactivity: DC pulsed, co-cultured with αGC reactive T cells, IFNγ ELISA; assay type: cell-based, human; details: for increase of antigenic potency of GGC: compared to freshly sonicated free GGC or GGC with HDL, LDL or albumin
# Description: Sonicated GGC was incubated with the indicated components in serum-free media with 4 mg/ml bovine serum albumin (BSA) as a carrier for 1-2 hours (or freshly sonicated) before pulsing DC and co-culturing with αGC reactive T cells in media supplemented with 2% human serum. IFNγ was measured in 16-24 hours by ELISA.
# C) Dose-dependence of apoE.
# LDL-R = assay: ApoB competition at the LDL-R: DC pulsed with free GGC or apoE-GGC, activation of αGC reactive T cells; assay type: cell-based, human; details: increasing amounts of apoB
# Description: C) Free GGC or apoE-GGC was pulsed onto DC in the presence of increasing concentrations of apoB, and the subsequent activation of αGC reactive T cells was measured. There was no effect of apoB on PHA-stimulation of T cells. All data are representative of at least three experiments.
# In a second approach, advantage was taken of the fact that apoB, the primary component of LDL, also binds to the LDL-R and can serve as a competitive ligand, while not binding LRP (Beisiegel et al., Nature 341:162-4 (1989)). […] As controls, increasing amounts of apoB had no effect on the dose response to free GGC (FIG. 3C) or on the PHA induced T cell response.
# TT-reactive clone = assay type: cell-based
# CD1d-reactive T cells = assay: T cell reactivity to GGC in apoE-depleted human serum; assay type: cell-based; details: compared to normal human serum
# Text: Data are means of triplicate samples +/−SEM and are representative of four independent experiments using two separate apoE depletion columns and varying doses of antigen. Statistics reflect all doses in all experiments: *p<0.001, **p<0.001, ***p<0.01.
# DC = assay: Rapidity of lipid antigen uptake: DC pulsed for varying times, then T cell stimulation; assay type: cell-based, human; details: free lipid in media alone
# Description: A) ApoE enhances the efficiency of presentation of GGC. […] GGC (solid squares and striped bars) or sonicated free GGC (open triangles and open bars) was incubated with DC in serum-free media with 4 mg/ml BSA for the indicated times before washing and testing the ability to stimulate T cells as described in FIGS. 1 and 2. Upper panel: Dose response curve of GGC for 2 minute pulse. Lower panel: Various pulse times are shown for 50 ng/ml GGC.
# To determine the rapidity and efficiency of lipid uptake into DC, free lipid antigen or apoE-bound lipid antigen was used to pulse DC for varying times before washing the cells and assaying their subsequent ability to present antigen to T cells.
# αGC-reactive NKT cells [2] = assay: Response to intravenous GGC in LDL-R deficient mice; assay type: in vivo; details: 200 ng GGC or 1.5 μg anti-CD3
# Description: D) LDLR−/− and matched wild type controls were challenged intravenously with 200 ng GGC, 1.5 μg anti-CD3 or vehicle as described in FIG. 1D. Shown are results from spleen, with similar results in the liver. Represents two separate experiments with 10 LDLR−/− and 10 wild type mice.
# Finally, the response to GGC in LDL-R deficient mice was examined. […] Thus, it was concluded that the LDL-R plays a major role in the uptake of apoE-lipid antigen complexes and presentation by CD1.
# αGC-reactive NKT cells [3] = assay: Response to intravenous GGC in apoE-deficient mice (intracellular IFNγ of CD1d tetramer positive cells); assay type: in vivo; details: 200 ng GGC or 1.5 μg anti-CD3
# Text: Spleens and livers were harvested and TcRβ-positive, CD19-negative, CD1d tetramer positive cells analyzed for intracellular IFNγ production by flow cytometry.
# This was not due to a nonspecific deficit of T cell reactivity, since intravenous administration of anti-CD3 antibodies activated αGC reactive T cells similarly in both apoE-deficient mice and controls. Thus, apoE plays a crucial role in the in vivo presentation of an exogenous lipid antigen.
# apoE = apoE (Homo sapiens, UniProt P02649); assay: ApoE-GGC binding, heparin affinity column
# Chain of apoE (P02649 19-317): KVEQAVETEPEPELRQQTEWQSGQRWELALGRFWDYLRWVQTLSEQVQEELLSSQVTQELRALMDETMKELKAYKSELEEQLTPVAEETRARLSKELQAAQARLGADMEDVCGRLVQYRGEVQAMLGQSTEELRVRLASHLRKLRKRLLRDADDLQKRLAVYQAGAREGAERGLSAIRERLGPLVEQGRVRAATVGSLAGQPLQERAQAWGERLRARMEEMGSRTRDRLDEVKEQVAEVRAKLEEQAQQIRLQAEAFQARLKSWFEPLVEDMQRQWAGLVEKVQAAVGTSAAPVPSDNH
# Description: A) ApoE-GGC binding. […] Fractions were assayed for antigenic activity as in FIG. 1. There was no difference in non-specific loss to the column. Data are representative of at least six separate experiments.
# CD1c = CD1c presented antigen T cell stimulation with or without apoE; assay type: cell-based; details: versus without apoE
substance,measurement,setting,value
Glucose monomycolate,CD1b restricted T cell activation when complexed with apoE,[1],more efficient
VLDL-derived apoE: apoE derived from VLDL,increase of antigenic potency of GGC,αGC reactive T cells,~50 fold
apolipoprotein B [apoB],effect on antigen presentation by DC pulsed with apoE-GGC,LDL-R,dose-dependent diminution
same,effect on dose response to free GGC or PHA induced T cell response,LDL-R,no effect
apolipoprotein E [apoE],effect on MHC class II restricted response to tetanus toxoid,TT-reactive clone,no effect
same,capacity of serum incubated with GGC to stimulate T cells,CD1d-reactive T cells,recovered
same,"effect on control T cell stimulators (CD3, PHA or PMA/ionomycin)",αGC reactive T cells; increasing the concentration of apoE,no effect
galactosyl(α1-2)galactosyl ceramide [GGC],time required to achieve maximal stimulation,DC,4 to 6 h
same,maximal stimulation relative to that achieved in 2 minutes with apoE,DC; 4-6 hours,48% (+/−11%)
same,response in LDL-R knockouts versus wild type controls,αGC-reactive NKT cells [2],greatly diminished response
same,response in apoE-deficient mice versus wild type controls,αGC-reactive NKT cells [3],drastically reduced
same,binding of GGC to apoE,apoE; 10 minute incubation at room temperature,all detectable lipid antigen remained bound to apoE
same,GGC bound to apoE,apoE; in the presence of a 500-fold excess of albumin,greater than 95%
manosyl-phosphomycoketide,T cell stimulation by CD1c presented antigen complexed with apoE,CD1c,significantly more efficient
mycolic acid,CD1b restricted T cell activation when complexed with apoE,[1],more efficient
recombinant apoE: recombinant apoE,increase of antigenic potency of GGC,αGC reactive T cells,~50 fold

# Source: US7608246B2 (The Brigham and Women's Hospital, Inc., priority 2005, dated 2009)
